BigSolDB 2.1

Settings: in NMP

CC(C)Oc1ccc2c(=O)c(-c3ccccc3)coc2c1
Settings | solubility (mole fraction)
278.15 K | 0.0605
283.15 K | 0.0683
288.15 K | 0.078
293.15 K | 0.0892
298.15 K | 0.101
303.15 K | 0.113
308.15 K | 0.129
313.15 K | 0.146
318.15 K | 0.165
323.15 K | 0.186
